Read-outs that look alike come from different tables or passages of the source.
Assays:
H460 cancer cells = assay: H460 proliferation assay in the presence of the specific AKR1C3 enzyme inhibitor TH-3021; format: cell-based, human; conditions: AKR1C3 inhibitor TH-3021 at 3 micromolar, added two hours before compound treatment, read-out: IC50 (nM) obtained when the AKR1C3 inhibitor TH-3021 was added
Method: (§1) Specifically, exponentially growing cells were seeded at a density of 4×10^3 cells per well in a 96 well plate and incubated at 37° C. in 5% CO2, 95% air and 100% relative humidity for 24 hours prior to addition of test compounds. Compounds were solubilized in 100% DMSO at 200 times the desired final test concentration. At the time of drug addition, compounds were further diluted to 4 times the desired final concentration with complete medium. Aliquots of 50 μl of compound at specified concentrations were added to microtiter wells already containing 150 μl of medium, resulting in the final drug concentration reported. After drug addition, the plates were incubated for an additional 2 hours at 37° C., 5% CO2, 95% air, and 100% relative humidity, then the drug was washed off and fresh medium was added and the plates were incubated for addition 70 hrs at 37° C., 5% CO2, 95% air and 100% relative humidity. At the end of this incubation, the viable cells were quantified using the AlamarBlue assay.
Similarly, in order to further verify that the compounds are activated by human AKR1C3 ([…] family 1 member C3), the effect of some of the compounds on the proliferation of H460 cancer cells was tested in the presence of a specific AKR1C3 enzyme inhibitor (at 3 micromolar concentration). The inhibitor-added compound solution was added to the cell culture two hours before the treatment with the compound. The inhibitor used was compound 36, i.e.,
[drawing 17] (TH-3021) in Flanagan et al., Bioorganic and Medicinal Chemistry (2014), pages 962-977.

[1] = tested on: H460 non-small cell lung cancer human tumor cell line; assay: In vitro human tumor cell line cytotoxicity (proliferation) assay, H460; format: cell-based; conditions: NCI-H460, H460 cells, 2 hrs compound exposure, wash, additional 70 hrs incubation, AlamarBlue
Method: In vitro human tumor cell line cytotoxicity assays.
In vitro proliferation data on the H460 non-small cell lung cancer human tumor cell line is reported below in the compound table.
as §1

Structure (SMILES)	IC50 (H460 cancer cells) [nM]	IC50 [1] [nM]	IC50 (H460 cancer cells; Homo sapiens, NCI-H460, 2 h) [nM]
O=C(c1cccc(Oc2cc(C(OP(=O)(N3CC3)N3CC3)C(F)(F)F)ccc2[N+](=O)[O-])c1)N1CCCCC1 (centres unmarked) [Compound No. 21]	176	6.98	
CN(C(=O)c1ccc(Oc2cc(C(OP(=O)(N3CC3)N3CC3)C(F)(F)F)ccc2[N+](=O)[O-])cc1)c1ccccc1 (centres unmarked) [Compound No. 41]	341	2.54	
O=[N+]([O-])c1ccc(C(OP(=O)(N2CC2)N2CC2)C(F)(F)F)cc1Oc1ccc2ncccc2c1 (centres unmarked) [Compound No. 40]	> 1000	14.7	
O=C(c1cccc(Oc2cc(COc3c(F)cc(COP(=O)(N4CC4)N4CC4)cc3F)ccc2[N+](=O)[O-])c1)N1CC(F)C1 [Compound No. 36]	238	< 4.37	
O=[N+]([O-])c1ccc(C(OP(=O)(N2CC2)N2CC2)C(F)(F)F)cc1Oc1ccc(-c2ccc(F)cn2)cc1 (centres unmarked) [Compound No. 20]	> 1000	46.8	
CN(C)C(=O)c1cccc(Oc2cc(C(OP(=O)(N3CC3)N3CC3)C(F)(F)F)ccc2[N+](=O)[O-])c1 (centres unmarked) [Compound No. 6]	813	1.27	
CN(C)C(=O)c1ccc(Oc2cc(COc3c(F)cc(COP(=O)(N4CC4)N4CC4)cc3F)ccc2[N+](=O)[O-])cc1 [Compound No. 1]	460	1.97	
O=[N+]([O-])c1ccc(C(OP(=O)(N2CC2)N2CC2)C(F)(F)F)cc1Oc1ccc(-c2ccc(F)cc2F)cc1 (centres unmarked) [Compound No. 15]		11.4	> 1000
O=[N+]([O-])c1ccc(C(OP(=O)(N2CC2)N2CC2)C(F)(F)F)cc1Oc1ccc(-c2ccc(F)cc2)nc1 (centres unmarked) [Compound No. 18]	> 1000	35.5	
O=C(c1cccc(Oc2cc(C(OP(=O)(N3CC3)N3CC3)C(F)(F)F)ccc2[N+](=O)[O-])c1)N1CCC(O)CC1 (centres unmarked) [Compound No. 26]	175	1.2	
O=[N+]([O-])c1ccc(C(OP(=O)(N2CC2)N2CC2)C(F)(F)F)cc1Oc1ccc(OC(F)(F)F)cc1 (centres unmarked) [Compound No. 11]	> 1000	137	
N#Cc1cccc(Oc2cc(COc3c(F)cc(COP(=O)(N4CC4)N4CC4)cc3F)ccc2[N+](=O)[O-])c1 [Compound No. 39]	137	7.79	
CC1(C)CCN(C(=O)c2cccc(Oc3cc(C(OP(=O)(N4CC4)N4CC4)C(F)(F)F)ccc3[N+](=O)[O-])c2)CC1 (centres unmarked) [Compound No. 24]	> 1000	4.33	
O=[N+]([O-])c1ccc(C(OP(=O)(N2CC2)N2CC2)C(F)(F)F)cc1Oc1cccc(-c2ccc(F)cc2)c1 (centres unmarked) [Compound No. 14]	> 1000	30	
O=[N+]([O-])c1ccc(C(OP(=O)(N2CC2)N2CC2)C(F)(F)F)cc1Oc1ccc(F)c(C(F)(F)F)c1 (centres unmarked) [Compound No. 12]	> 1000	87.3	
O=C(c1cccc(Oc2cc(C(OP(=O)(N3CC3)N3CC3)C(F)(F)F)ccc2[N+](=O)[O-])c1)N1CCC(F)(F)CC1 (centres unmarked) [Compound No. 22]	139	1.37	
N#Cc1ccc(Oc2cc(COc3c(F)cc(COP(=O)(N4CC4)N4CC4)cc3F)ccc2[N+](=O)[O-])cc1 [Compound No. 37]	136	12.3	
O=C(c1cccc(Oc2cc(COc3c(F)cc(COP(=O)(N4CC4)N4CC4)cc3F)ccc2[N+](=O)[O-])c1)N1CC(F)(F)C1 [Compound No. 38]	267	5.53	
O=C(c1ccc(Oc2cc(C(OP(=O)(N3CC3)N3CC3)C(F)(F)F)ccc2[N+](=O)[O-])cc1)N1CCC(c2ccccc2)CC1 (centres unmarked) [Compound No. 30]	> 1000	79.9	
O=[N+]([O-])c1ccc(C(OP(=O)(N2CC2)N2CC2)C(F)(F)F)cc1Oc1ccc(-c2ccc(F)cc2F)c(F)c1 (centres unmarked) [Compound No. 17]	> 1000	7.26	
O=[N+]([O-])c1ccc(C(OP(=O)(N2CC2)N2CC2)C(F)(F)F)cc1Oc1ccc(C2CCCC2)cc1 (centres unmarked) [Compound No. 47]		8.13	

Structure (SMILES)	IC50 (H460 cancer cells) [nM]	IC50 [1] [nM]	IC50 (H460 cancer cells; Homo sapiens, NCI-H460, 2 h) [nM]
Cn1ncc2cc(Oc3cc(C(OP(=O)(N4CC4)N4CC4)C(F)(F)F)ccc3[N+](=O)[O-])ccc21 (centres unmarked) [Compound No. 43]	102	30.4	
O=[N+]([O-])c1ccc(COc2c(F)cc(COP(=O)(N3CC3)N3CC3)cc2F)cc1Oc1ccc(C(F)(F)F)cc1 [Compound No. 4]	> 1000	9.31	
O=[N+]([O-])c1ccc(COc2c(F)c(F)c(COP(=O)(N3CC3)N3CC3)c(F)c2F)cc1Oc1ccc(C(F)(F)F)cc1 [Compound No. 8]	> 1000	0.526	
CN(C)C(=O)c1ccc(Oc2cc(COc3c(F)c(F)c(COP(=O)(N4CC4)N4CC4)c(F)c3F)ccc2[N+](=O)[O-])cc1 [Compound No. 2]	> 1000	0.352	
O=[N+]([O-])c1ccc(C(OP(=O)(N2CC2)N2CC2)C(F)(F)F)cc1Oc1ccc(-c2ccc(F)cc2)cc1 (centres unmarked) [Compound No. 9]	> 1000	18.4	
CN(C)C(=O)c1ccc(Oc2cc(C(OP(=O)(N3CC3)N3CC3)C(F)(F)F)ccc2[N+](=O)[O-])cc1 (centres unmarked) [Compound No. 27]	> 1000	9.32	
O=C(c1ccc(Oc2cc(C(OP(=O)(N3CC3)N3CC3)C(F)(F)F)ccc2[N+](=O)[O-])cc1)N1CCC(C(F)(F)F)CC1 (centres unmarked) [Compound No. 29]	> 1000	60.1	
O=C(c1cccc(Oc2cc(C(OP(=O)(N3CC3)N3CC3)C(F)(F)F)ccc2[N+](=O)[O-])c1)N1CCCC1 (centres unmarked) [Compound No. 23]	795	6.04	
CN(C)C(=O)c1cccc(Oc2cc(COc3c(F)c(F)c(COP(=O)(N4CC4)N4CC4)c(F)c3F)ccc2[N+](=O)[O-])c1 [Compound No. 3]	> 1000	0.417	
O=[N+]([O-])c1ccc(C(OP(=O)(N2CC2)N2CC2)C(F)(F)F)cc1Oc1cnc2ccccc2c1 (centres unmarked) [Compound No. 13]	> 1000	42.2	
O=C(c1ccc(Oc2cc(C(OP(=O)(N3CC3)N3CC3)C(F)(F)F)ccc2[N+](=O)[O-])cc1)N1CCCCC1 (centres unmarked) [Compound No. 28]	649	2.36	
CN(C)C(=O)c1ccc(Oc2cc(COc3cc(F)c(COP(=O)(N4CC4)N4CC4)cc3Cl)ccc2[N+](=O)[O-])cc1 [Compound No. 34]	> 1000	38.5	
O=[N+]([O-])c1ccc(COc2c(F)cc(COP(=O)(N3CC3)N3CC3)cc2F)cc1Oc1ccc(Cl)nc1 [Compound No. 5]	228	5.87	
O=[N+]([O-])c1ccc(C(OP(=O)(N2CC2)N2CC2)C(F)(F)F)cc1Oc1ccc(-c2ccccc2)cc1 (centres unmarked) [Compound No. 44]	> 1000	9.42	
Cc1nc2ccc(Oc3cc(C(OP(=O)(N4CC4)N4CC4)C(F)(F)F)ccc3[N+](=O)[O-])cc2s1 (centres unmarked) [Compound No. 42]	> 1000	29.3	
O=[N+]([O-])c1ccc(C(OP(=O)(N2CC2)N2CC2)C(F)(F)F)cc1Oc1ccc(C2CCC(F)(F)CC2)cc1 (centres unmarked) [Compound No. 49]	> 1000	9.61	
O=C(c1cccc(Oc2cc(C(OP(=O)(N3CC3)N3CC3)C(F)(F)F)ccc2[N+](=O)[O-])c1)N1CCC(C(F)(F)F)CC1 (centres unmarked) [Compound No. 25]	179	1.86	
O=[N+]([O-])c1ccc(C(OP(=O)(N2CC2)N2CC2)C(F)(F)F)cc1Oc1ccc(C(F)(F)F)cc1 (centres unmarked) [Compound No. 7]	> 1000	25.6	
O=[N+]([O-])c1ccc(C(OP(=O)(N2CC2)N2CC2)C(F)(F)F)cc1Oc1ccc(-c2ccc(F)cc2)c(F)c1 (centres unmarked) [Compound No. 16]	> 1000	6.78	
O=[N+]([O-])c1ccc(C(OP(=O)(N2CC2)N2CC2)C(F)(F)F)cc1Oc1ccc(C2CCCCC2)cc1 (centres unmarked) [Compound No. 48]		3.7	

Reference: patent US12595275B2, “Fluorine-containing compound and anti-cancer medical use thereof” (ASCENTAWITS PHARMACEUTICALS, LTD., priority 2019, dated 2026)
